Patent US10111877B2, “Modulators of androgen synthesis” (Tangent Reprofiling Limited, priority 2012, dated 2018)

Assays:
BxPC-3 cells = assay: Resazurin-based cell viability assay, pancreatic cancer cell line; conditions: 72 hours, combination equimolar, 100% = no drug, 0% = Paclitaxel
Procedure: To determine whether Risperidone alone, or in combination with CLA could inhibit cell growth of cells taken from a pancreatic cancer cell line overexpressing HSD10, a resazurin-based cell viability assay was conducted on Bx-PC3 cells.
BxPC-3 cells are from a cell line derived from a human pancreatic adenocarcinoma and are known to overexpress HSD10. BxPC-3 cells were seeded at a density of 4,000 cells per well in a 384 well plate, and incubated at 37° C., 5% CO2 for 24 hours in standard growth media (RPMI nutrient media, 5% heat-inactivated Fetal Calf Serum, 2 mM L-Glutamine). The media was then removed by pipette and replaced with 50 μL BxPC-3 treatment media comprising 125 μM fatty acid-free BSA, 2 mM L-Glutamine and one of the following drug treatments: 0.1 μM, 2 μM, or 50 μM Risperidone; 0.1 μM, 2 μM, or 50 μM CLA; or 0.1 μM, 2 μM, or 50 μM of Risperidone and CLA (in equimolar amounts). After incubation in the drug treatment for 72 hours at 37° C., 5% CO2, viable cell number was determined using a resazurin-based cell viability assay (PRESTOBLUE®; Invitrogen, Carlsbad, Calif.). To each well, 7 μL of PRESTOBLUE® reagent was added and the plates incubated for 60 minutes at 37° C., 5% CO2. After incubation, the fluorescence intensity of each well was determined using a microplate reader by excitation and 570 nm and recording emission at 600 nm. The percentage of viable cell number was calculated by normalizing the experimental fluorescence intensity, where 100% is set to cells receiving no drug treatment (cells metabolizing at optimal rate), and 0% is set to readings from cells treated with Paclitaxel (cells not metabolizing at all due to their destruction by anti-cancer drug). A value under 50% could be considered a useful indication of potential efficacy.

PC-3M-luc cells = assay: Orthotopic prostate tumor mouse xenograft model; conditions: single drug
Procedure: Immunodeficeint male mice (athymic nude mice) were acclimated to the laboratory for at least one week prior to implantation of tumor. PC-3M-luc cells obtained directly from in vitro culture were then injected into the prostate on Day 0. Animals were divided into six groups of 12 mice each. Primary tumor size and metastases were assessed by bioluminescence measurements on day 6, 13, 20, 27, 34, and 40. On day 7 a five week treatment regime was initiated. Both individual drug and high and low dose combination were examined by administering the drugs twice daily on an individual body weight basis using a dose escalation protocol (Table 7). If tumors grew above a pre-determined level, or mice lost more than 10% of bodyweight, they were culled. The primary tumor was excised, weighed and measured. Individual organs were imaged to assess metastatic burden.

PC3 cells = assay: Cell metabolism inhibition assay (Cell titre Blue) with fatty acids; format: cell-based; conditions: 100% = undrugged media
Procedure: A cell metabolism inhibition assay was performed to determine the effect of different fatty acids on cellular metabolic rate. The fatty acids tested were α-Linolenic acid, omega 3 fatty acid (ALA), Arachidonic acid, omega 6 fatty acid (AA), 9Z, 11E conjugated Linoleic acid, omega 7 fatty acid (CLA), Docosahexaenoic acid, omega 3 fatty acid (DHA), Eicosapentaenoic acid, omega 3 fatty acid (EPA), Oleic acid, omega 9 fatty acid (OA), Ricinoleic acid, omega 9 hydroxylated fatty acid (RA).
PC3 cells are from a cell line derived from a hormone refractory prostate cancer and are known to overexpress HSD10. PC3 cells were seeded at a density of 4,000 cells per well in a 96 well plate, and incubated at 37° C., 5% CO2 for 48 hours in standard growth media (F12K nutrient media, 7% Fetal Calf Serum, 2 mM L-Glutamine, 45 mg/L ascorbic acid). The media was then removed by pipette and replaced with the appropriate drug treatment as follows: 20 μM, or 40 μM, or 60 μM, or 80 μM, or 100 μM ALA in PC3 treatment media (F12K nutrient media, 125 uM fatty acid free BSA, 2 mM L-Glutamine, 45 mg/L ascorbic acid); 20 μM, or 40 μM, or 60 μM, or 80 μM, or 100 μM AA in PC3 treatment media; 20 μM, or 40 μM, or 60 μM, or 80 μM, or 100 μM CLA in PC3 treatment media; 20 μM, or 40 μM, or 60 μM, or 80 μM, or 100 μM DHA in PC3 treatment media; 20 μM, or 40 μM, or 60 μM, or 80 μM, or 100 μM EPA in PC3 treatment media; 20 μM, or 40 μM, or 60 μM, or 80 μM, or 100 μM OA in PC3 treatment media; and 20 μM, or 40 μM, or 60 μM, or 80 μM, or 100 μM RA in PC3 treatment media. After incubation in the drug treatment for 72 hours at 37° C., 5% CO2, 50 μL Cell titre Blue Assay Reagent was added to each well and the plate return to incubation at 37° C., 5% CO2, for a further 24 hours, at which time the absorbance at 620 nm was recorded. The reduction of absorbance at 620 nm represents a higher metabolic rate, and the data below has been normalized such that 100% represents cells that have been grown in the presence of undrugged media, and 0% represents wells containing no cells.

MCF7 cells = assay: Cell growth inhibition, lysed cell LDH assay, breast cancer cell line; format: cell-based; conditions: 50 μM Risperidone and/or 50 μM CLA, 1 μM Testosterone (T) where added, 96 hours
Procedure: (§1) To determine whether Risperidone could be effective in inhibiting growth of cancer cells overexpressing HSD10, a lysed cell LDH assay was conducted using cells taken from a prostate cancer cell line, a lung cancer cell line, a breast cancer cell line, an ovarian cancer cell line, each of which was known to overexpress HSD10, and a non-cancerous cell line.
(§2) After incubation in the drug treatment for 96 hours at 37° C., 5% CO2, the supernatant was removed from all wells of cells, and cells washed with 200 μL PBS.
(§3) After removal of the PBS from the cell cultures described above, cell number was determined using a lysed cell LDH assay. Cells were lysed with 0.9% Triton-X in PBS for 2 hours at 37° C., 5% CO2 and 50 μL of this cell lysate was transferred to a fresh 96 well plate. About 50 μL of CytoTox 96 assay reagent was added to the transferred cell lysate and this mixture was incubated at room temperature in the dark for 20 minutes. After the addition of 50 μL stop reagent, the optical absorbance was determined for each incubated mixture at 492 nm. […] The mean and standard error was calculated from at least 3 wells.

OVCAR-3 cells = assay: Cell growth inhibition, lysed cell LDH assay, ovarian cancer cell line; format: cell-based; conditions: 50 μM Risperidone and/or 50 μM CLA, 1 μM Testosterone (T) where added, 96 hours
Procedure: as §1, §2, §3

CCCCCC/C=C/C=C\CCCCCCCC(=O)O [CLA, 9Z, 11E conjugated Linoleic acid]
percentage of viable cell number (BxPC-3 cells; 0.1 uM): 103%
percentage of viable cell number (BxPC-3 cells; 2 uM): 71%
percentage of viable cell number (BxPC-3 cells; 50 uM): 119%
body weight throughout the study (PC-3M-luc cells; by Day 40): maintained a constant weight
animal loss (PC-3M-luc cells; by day 34): about 10%
Tumor Growth Inhibition (PC-3M-luc cells; calculated on Day 34, dosing per Table 7, listed as Rumenic Acid): 21%
Animal Survival (overall survivorship) (PC-3M-luc cells; day 40, dosing per Table 7, listed as Rumenic Acid): 45%
Cellular Metabolic Activity (PC3 cells; 20 μM fatty acid): 86 ± 2.4%
Cellular Metabolic Activity (PC3 cells; 40 μM fatty acid): 71 ± 3.8%
Cellular Metabolic Activity (PC3 cells; 60 μM fatty acid): 59 ± 2.8%
Cellular Metabolic Activity (PC3 cells; 80 μM fatty acid): 63 ± 4.0%
Cellular Metabolic Activity (PC3 cells; 100 μM fatty acid): 67 ± 5.0%
Percentage of Lysed Cells (MCF7 cells): 56 ± 2.6%
Percentage of Lysed Cells (OVCAR-3 cells): 87 ± 6.0%
